Source: patent US20170296540A1, “METHODS OF TREATING FRIEDREICH'S ATAXIA USING SRC INHIBITORS” (Fratagene Therapeutics S.R.L., priority 2014, published 2017)
“Also recorded” adds a separate entry of the source. Read-outs that look alike come from different tables or passages of the source.

Experiments:
[1] = tested on: HEK293^FXN cells stably expressing a single copy of wild-type frataxin; assay: Frataxin precursor accumulation with Src inhibitor, ubiquitin competing molecule or combination in HEK293^FXN cells; settings: F166 1 uM; 24 h
Method: Data are representative of four independent experiments. […] The frataxin expression was normalized with tubulin, and frataxin expression in non-treated cells (−) was set to 1. Data represent the mean±1 S.E.M. from four independent experiments.
The frataxin precursor (FXN) and tubulin expression (TUB) were analyzed by western blot (FIG. 7A). The data shown are representative of four independent experiments.
The amount of frataxin accumulation was quantified by densitometry (FIG. 7B). Frataxin expression was normalized with tubulin, and frataxin expression in non-treated cells (−) was set to 1. The data shown represent the mean±1 S.E.M. from four independent experiments.

[2] = tested on: HEK293^FXN cells stably expressing single copy of wild type frataxin; assay: Frataxin accumulation (western blot, densitometry) in HEK293^FXN cells expressing wild type frataxin; assay type: cell-based, human; settings: 1, 3 and 10 μM, 24 h
Method: (§1) FIG. 4. […] HEK293^FXN cells stably expressing single copy of wild type frataxin (WT) or non-phosphorylable Y118F frataxin mutant (Y118F) were treated for 24 h with 1, 3, and 10 μM of either Src inhibitor SU6656, PP2, dasatinib, bosutinib, saracatinib, or vehicle (−). […] Data are representative of three independent experiments. The precursor (P), intermediate (I) and mature (M) frataxin forms are indicated. Right panels: Densitometric quantification of frataxin accumulation for the corresponding inhibitor.
(§2) HEK-293 Flp-In cells (Life Technologies) are HEK-293 variants allowing the stable and isogenic integration and expression of a transfected gene. The HEK-293 clone stably expressing frataxin^1-210 (Condo et al. 2007) and the clone stably expressing frataxin^V118F were generated by mutagenesis as described below. HEK-293 Flp-In cells were maintained in DMEM supplemented with 10% FBS.
(§3) Densitometric analyses were performed using ImageLab software (Biorad).
(§4) Because phosphorylation on Y118 promotes ubiquitination and that preventing ubiquitin-dependent degradation increases frataxin levels (Rufini et al. 2011), the effects of frataxin phosphorylation by Src kinase were tested for enhancement of frataxin expression.

[3] = tested on: HEK293^FXN cells stably expressing non-phosphorylable Y118F frataxin mutant; assay: Frataxin accumulation (western blot, densitometry) in HEK293^FXN cells expressing Y118F frataxin mutant; assay type: cell-based, human; settings: 1, 3 and 10 μM, 24 h
Method: as §1, §2, §3, §4

[4] = tested on: endogenous frataxin in HEK293 cells; assay: Endogenous frataxin accumulation in HEK293 cells (western blot, densitometry); assay type: cell-based, human; settings: 1, 3 and 10 μM, 24 h
Method: Human HEK293 cells were treated with 1, 3 and 10 μM of SU6656, PP2, and dasatinib Src inhibitor or vehicle (−) for 24 h. Frataxin (FXN) and tubulin expression (TUB) was analyzed by western blot. Data are representative of three independent experiments. […] Right panels: densitometric quantification of frataxin accumulation. Frataxin expression was normalized with tubulin and frataxin expression in non-treated cells (NT) set to one. Data represent the mean±1 S.E.M. from three different independent experiments performed for each inhibitor in the left panels.
Human embryonic kidney HEK-293 cells were cultured in Dulbecco's modified Eagle's medium (DMEM) supplemented with 10% fetal bovine serum (FBS). […]
Cell lysates (100 μg) were resolved by SDS-PAGE and analyzed by immunoblot with specific mAb anti-frataxin clone 1G2 and STR-23 (Immunological Sciences, Rome, Italy) mAb anti-tubulin (Sigma), mAb anti-actin (Sigma), mAb anti-phosphotyrosine (Millipore), pAb anti-phospho-Src (Life Technologies), mAb anti-GFP (Takara), secondary antibody horseradish peroxidase-conjugated goat anti-mouse (Pierce), secondary antibody horseradish peroxidase-conjugated mouse anti-rabbit (Pierce), secondary antibody horseradish peroxidase-conjugated goat anti-Fc anti-mouse (Thermo Scientific) using ECL system detection (GE Healthcare Europe GmbH, Milan, Italy). […]

[5] = tested on: FRDA patient-derived B cells (GM16214)
Method: (§5) Left panels: mature frataxin (FXN) and tubulin expression (TUB) was analyzed by western blot. Data are representative of three independent experiments. Right panels: densitometric quantification of frataxin accumulation. Frataxin expression was normalized with tubulin and frataxin expression in non-treated cells (NT) set to one. Data represent the mean±1 S.E.M. from three different independent experiments performed for each inhibitor in the left panels.
(§6) Total cell extracts were prepared in ice-cold modified RIPA buffer (10 mM sodium phosphate pH 7.2, 150 mM NaCl, 1% Na deoxycholate, 0.1% SDS, 1% Nonidet P-40, 2 mM EDTA) or IP buffer (50 mM Tris-HCl, pH 7.5, 150 mM NaCl, 1% Nonidet P-40, 5 mM EDTA, 5 mM EGTA) supplemented with complete protease inhibitor cocktail (Roche Diagnostics, Milan, Italy), sodium orthovanadate 1 mM and NaF 25 mM to inhibit phosphatases.
(§7) Cell lysates (100 μg) were resolved by SDS-PAGE and analyzed by immunoblot with specific mAb anti-frataxin clone 1G2 and STR-23 (Immunological Sciences, Rome, Italy) mAb anti-tubulin (Sigma), mAb anti-actin (Sigma), mAb anti-phosphotyrosine (Millipore), pAb anti-phospho-Src (Life Technologies), mAb anti-GFP (Takara), secondary antibody horseradish peroxidase-conjugated goat anti-mouse (Pierce), secondary antibody horseradish peroxidase-conjugated mouse anti-rabbit (Pierce), secondary antibody horseradish peroxidase-conjugated goat anti-Fc anti-mouse (Thermo Scientific) using ECL system detection (GE Healthcare Europe GmbH, Milan, Italy).
(§8) For treatment longer than 24 h, inhibitors were added every 2 days, and each time lymphoblasts were centrifuged and resuspended at 400.000 cells/ml with the indicated concentration of inhibitor.
(§9) FRDA lymphoblasts were exposed to these inhibitors for different time periods.

[6] = tested on: FRDA patient-derived B cells (GM16214); assay: Frataxin accumulation in frataxin-deficient FRDA patient-derived B cells (western blot, densitometry); settings: for frataxin accumulation in frataxin-deficient cells (mature frataxin): FRDA patient-derived B cells, 10 μM, time course 24 h to 72 h
Method: as §5, §6, §7, §8, §9

[7] = tested on: nude mice; settings: mouse, in vivo, po; cited from earlier work

Row | Structure (SMILES) | frataxin precursor accumulation, single agent [1] | frataxin accumulation (frataxin normalized with tubulin, non-treated cells set to one) [2] | frataxin accumulation (frataxin normalized with tubulin, non-treated cells set to one) [3] | endogenous frataxin accumulation [4] | tolerability in cells [5] | frataxin accumulation in frataxin-deficient cells (mature frataxin) [6] | toxicity of regimen [7] | tolerability in cells ([6]; FRDA patient-derived B cells (GM16214))
1 | COc1ccccc1C(=O)N/N=C(\C)c1ccc2c(c1)Nc1ccccc1S2 [F166] | accumulate frataxin precursor | – | – | – | – | – | – | –
2 | CC(C)(C)n1nc(-c2ccc(Cl)cc2)c2c(N)ncnc21 [PP2] | – | upregulate wild type frataxin | not the non-phosphorylable Y118F frataxin mutant | promote endogenous frataxin accumulation | best tolerated | promote frataxin accumulation | – | –
3 | Cc1nc(Nc2ncc(C(=O)Nc3c(C)cccc3Cl)s2)cc(N2CCN(CCO)CC2)n1 [dasatinib] | – | – | – | – | – | – | no toxicity | best tolerated
4 | CN(C)S(=O)(=O)c1ccc2c(c1)/C(=C/c1cc3c([nH]1)CCCC3)C(=O)N2 [SU6656] | – | upregulate wild type frataxin | not the non-phosphorylable Y118F frataxin mutant | promote endogenous frataxin accumulation | best tolerated | further accumulated within 72 h; also recorded: promote frataxin accumulation | – | –
